Holding throughout (format): cell-based
For experiment [1], the target named is T1, hNPY2R (Homo sapiens, UniProt P49146).
T1 sequence (P49146 1-381): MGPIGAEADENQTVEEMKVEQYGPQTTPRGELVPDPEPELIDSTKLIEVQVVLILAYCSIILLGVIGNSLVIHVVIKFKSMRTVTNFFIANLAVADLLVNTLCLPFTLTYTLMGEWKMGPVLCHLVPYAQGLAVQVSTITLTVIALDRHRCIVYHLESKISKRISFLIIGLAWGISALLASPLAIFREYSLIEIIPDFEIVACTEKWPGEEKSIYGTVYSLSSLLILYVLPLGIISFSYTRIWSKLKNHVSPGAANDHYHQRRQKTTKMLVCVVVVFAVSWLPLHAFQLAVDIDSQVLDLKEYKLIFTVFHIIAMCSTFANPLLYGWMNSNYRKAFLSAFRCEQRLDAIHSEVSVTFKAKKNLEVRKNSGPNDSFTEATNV
Briefly: cAMP Agonist Assay, HEK293/hNPY2R. Further details: expressed in transfected cells; host or cells: HEK293/hNPY2R (G418 selection). The essentials: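 HEK293/hNPY2R cells (10,000/well, overnight) stimulated 30 min at room temperature with compound plus 5 μM forskolin and 0.5 mM IBMX (1.1% DMSO final). Lysate cAMP measured by competitive chemiluminescent ELISA (AP conjugate, CSPD substrate); quadruplicates.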

Another experiment deals with T2, Y1R (Homo sapiens, UniProt P25929).
T2 sequence (P25929 1-384): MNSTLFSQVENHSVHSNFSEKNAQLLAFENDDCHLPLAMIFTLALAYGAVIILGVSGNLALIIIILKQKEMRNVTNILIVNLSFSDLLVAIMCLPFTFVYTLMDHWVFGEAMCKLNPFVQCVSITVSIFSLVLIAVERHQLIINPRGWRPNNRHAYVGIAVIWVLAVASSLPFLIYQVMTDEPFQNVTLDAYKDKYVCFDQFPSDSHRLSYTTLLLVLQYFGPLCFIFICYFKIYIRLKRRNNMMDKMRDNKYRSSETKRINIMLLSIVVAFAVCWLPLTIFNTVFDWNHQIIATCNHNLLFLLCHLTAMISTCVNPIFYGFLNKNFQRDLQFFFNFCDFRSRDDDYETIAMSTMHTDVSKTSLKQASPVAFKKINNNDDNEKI
Briefly: CaFlux Assay (FLIPR), Y1R.

Another experiment has as its target Y4R (Homo sapiens, UniProt P50391). Briefly: CaFlux Assay (FLIPR), Y4R.
The next experiment concerns the target T3, Y5R (Homo sapiens, UniProt Q15761).
T3 sequence (Q15761 1-445): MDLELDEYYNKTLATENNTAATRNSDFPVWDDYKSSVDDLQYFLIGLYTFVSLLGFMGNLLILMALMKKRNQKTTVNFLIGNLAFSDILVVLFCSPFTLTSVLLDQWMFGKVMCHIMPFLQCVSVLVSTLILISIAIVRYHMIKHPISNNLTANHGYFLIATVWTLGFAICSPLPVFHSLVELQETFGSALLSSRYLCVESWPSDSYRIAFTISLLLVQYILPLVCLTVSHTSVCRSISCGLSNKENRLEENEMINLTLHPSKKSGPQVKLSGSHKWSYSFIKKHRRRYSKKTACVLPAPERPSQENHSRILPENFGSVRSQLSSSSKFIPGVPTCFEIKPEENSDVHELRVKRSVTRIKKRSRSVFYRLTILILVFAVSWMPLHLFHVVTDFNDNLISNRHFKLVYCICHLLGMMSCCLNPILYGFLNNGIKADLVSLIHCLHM
As to the kind of experiment: CaFlux Assay (FLIPR), Y5R.

The target of experiment [2] is T1, hNPY2R. As to the kind of experiment: CaFlux Assay (FLIPR), Y2R. Further details: expressed in transfected cells; host or cells: HEK-293 stably transfected with G protein chimera Gαqi9. Put shortly: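 HEK-293 cells stably co-expressing chimeric Gαqi9 and the receptor were plated overnight at 37 °C, loaded 1 h at 37 °C with Calcium-3 dye in HBSS/20 mM HEPES/5 mM probenecid, then given compound on FLIPR. Peak fluorescence rise over 100 s, baseline-subtracted, expressed as % of positive-control maximum.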

Each structure is given as a SMILES string. Some results are limits rather than exact numbers.

Chain of Y4R (P50391 whole entry): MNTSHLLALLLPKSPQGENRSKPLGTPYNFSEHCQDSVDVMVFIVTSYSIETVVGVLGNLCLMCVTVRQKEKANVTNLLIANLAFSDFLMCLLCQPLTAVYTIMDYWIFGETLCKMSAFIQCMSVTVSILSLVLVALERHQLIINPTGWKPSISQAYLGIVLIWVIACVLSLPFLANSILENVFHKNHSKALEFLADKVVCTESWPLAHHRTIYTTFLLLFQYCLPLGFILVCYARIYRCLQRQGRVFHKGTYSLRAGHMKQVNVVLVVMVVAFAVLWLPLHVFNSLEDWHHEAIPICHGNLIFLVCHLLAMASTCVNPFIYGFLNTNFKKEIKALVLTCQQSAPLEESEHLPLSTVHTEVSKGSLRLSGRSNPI

`CCCCCCCCCCCCCCCC(=O)NCCCCCC(=O)NCCCCCC(=O)N[C@H](C(=O)N[C@@H](CCCCNC(=O)CCOCCOCCOCCOCCOCCOCCOCCOCCOCCOCCOCCOCCOCCOCCOCCOC)C(=O)N1CCN(c2ccc3ncn(CC(=O)N[C@@H](CCCNC(=N)N)C(=O)N[C@@H](Cc4c[nH]cn4)C(=O)N[C@@H](Cc4ccc(O)cc4)C(=O)N[C@@H](CC(C)C)C(=O)N[C@@H](CC(N)=O)C(=O)N[C@@H](Cc4c[nH]c5ccccc45)C(=O)N[C@H](C(=O)N[C@H](C(=O)N[C@@H](CCCNC(=N)N)C(=O)N[C@@H](CCC(N)=O)C(=O)N(C)[C@@H](CCCNC(=N)N)C(=O)N[C@@H](Cc4ccc(O)cc4)C(N)=O)[C@@H](C)O)C(C)C)c(=O)c3c2)CC1)[C@@H](C)CC` [Example 41]: the EC50 is 0.17 nM at hNPY2R [1]; more than 6000 nM on Y1R; more than 6000 nM at Y4R; 1320 nM at Y5R; 0.04 nM at hNPY2R [2].
As for `CCCCCCCCCCCCCCCC(=O)NCCCCCC(=O)NCCCCCC(=O)N[C@H](C(=O)N[C@@H](CCCCNC(=O)CCOCCOCCOCCOCCOCCOCCOCCOCCOCCOCCOCCOCCOCCOCCOCCOCCOCCOCCOCCOCCOCCOCCOCCOC)C(=O)N1CCN(c2ccc3ncn(CC(=O)N[C@@H](CCCNC(=N)N)C(=O)N[C@@H](Cc4c[nH]cn4)C(=O)N[C@@H](Cc4ccc(O)cc4)C(=O)N[C@@H](CC(C)C)C(=O)N[C@@H](CC(N)=O)C(=O)N[C@@H](Cc4c[nH]c5ccccc45)C(=O)N[C@H](C(=O)N[C@H](C(=O)N[C@@H](CCCNC(=N)N)C(=O)N[C@@H](CCC(N)=O)C(=O)N(C)[C@@H](CCCNC(=N)N)C(=O)N[C@@H](Cc4ccc(O)cc4)C(N)=O)[C@@H](C)O)C(C)C)c(=O)c3c2)CC1)[C@@H](C)CC` [Example 42], the EC50 was 0.13 nM at hNPY2R [1]; more than 6000 nM on Y1R; more than 6000 nM on Y4R; 815 nM on Y5R; 0.069 nM on hNPY2R [2].
Take `CCCCCCCCCCCCCCCC(=O)NCCCCCC(=O)NCCCCCC(=O)N[C@@H](C(=O)N[C@@H](CCCCNC(=O)CCOCCOCCOCCOCCOCCOCCOCCOCCOCCOCCOCCOCCOCCOCCOCCOCCOCCOCCOCCOCCOCCOCCOCCOC)C(=O)N1CCN(c2ccc3ncn(CC(=O)N[C@@H](CCCNC(=N)N)C(=O)N[C@@H](Cc4c[nH]cn4)C(=O)N[C@@H](Cc4ccc(O)cc4)C(=O)N[C@@H](CC(C)C)C(=O)N[C@@H](CC(N)=O)C(=O)N[C@@H](Cc4c[nH]c5ccccc45)C(=O)N[C@H](C(=O)N[C@H](C(=O)N[C@@H](CCCNC(=N)N)C(=O)N[C@@H](CCC(N)=O)C(=O)N(C)[C@@H](CCCNC(=N)N)C(=O)N[C@@H](Cc4ccc(O)cc4)C(N)=O)[C@@H](C)O)C(C)C)c(=O)c3c2)CC1)[C@@H](C)CC` [Example 43]: the EC50 is 0.1 nM at hNPY2R [1]; more than 6000 nM at Y1R; more than 6000 nM on Y4R; 316 nM at Y5R; 0.1 nM on hNPY2R [2].
For `CCCCCCCCCCCCCCCCCCCC(=O)N[C@@H](CCC(=O)O)C(=O)N[C@@H](CCC(=O)O)C(=O)N[C@H](C(=O)N[C@@H](CCCCNC(=O)CCOCCOCCOCCOCCOCCOCCOCCOC)C(=O)N1CCN(c2ccc3ncn(CC(=O)N[C@@H](CCCNC(N)=O)C(=O)N[C@@H](Cc4c[nH]cn4)C(=O)N[C@@H](Cc4ccc(O)cc4)C(=O)N[C@@H](CC(C)C)C(=O)N[C@@H](CC(N)=O)C(=O)N[C@@H](Cc4c[nH]c5ccccc45)C(=O)N[C@H](C(=O)N[C@H](C(=O)N[C@@H](CCCNC(=N)N)C(=O)N[C@@H](CCC(N)=O)C(=O)N(C)[C@@H](CCCNC(=N)N)C(=O)N[C@@H](Cc4ccc(O)cc4)C(N)=O)[C@@H](C)O)C(C)C)c(=O)c3c2)CC1)[C@@H](C)CC` [Example 44], the concentration for a half-maximal effect (EC50) at hNPY2R [1] is 0.43 nM; on Y1R, more than 6000 nM; at Y4R it was more than 6000 nM; at Y5R it was more than 6000 nM; on hNPY2R [2], 0.313 nM.
As for `CCCCCCCCCCCCCCCCCCCC(=O)N[C@@H](CCC(=O)O)C(=O)N[C@@H](CCC(=O)O)C(=O)N[C@H](C(=O)N[C@@H](CCCCNC(=O)CCOCCOCCOCCOCCOCCOCCOCCOCCOCCOCCOCCOC)C(=O)N1CCN(c2ccc3ncn(CC(=O)N[C@@H](CCCNC(N)=O)C(=O)N[C@@H](Cc4c[nH]cn4)C(=O)N[C@@H](Cc4ccc(O)cc4)C(=O)N[C@@H](CC(C)C)C(=O)N[C@@H](CC(N)=O)C(=O)N[C@@H](Cc4c[nH]c5ccccc45)C(=O)N[C@H](C(=O)N[C@H](C(=O)N[C@@H](CCCNC(=N)N)C(=O)N[C@@H](CCC(N)=O)C(=O)N(C)[C@@H](CCCNC(=N)N)C(=O)N[C@@H](Cc4ccc(O)cc4)C(N)=O)[C@@H](C)O)C(C)C)c(=O)c3c2)CC1)[C@@H](C)CC` [Example 45], the EC50 on hNPY2R [1] was 0.3 nM; at Y1R, more than 6000 nM; on Y4R, more than 6000 nM; at Y5R, more than 6000 nM; on hNPY2R [2], 0.158 nM.
`CCCCCCCCCCCCCCCCCCCC(=O)N[C@@H](CCC(=O)O)C(=O)N[C@@H](CCC(=O)O)C(=O)N[C@H](C(=O)N[C@@H](CCCCNC(=O)CCOCCOCCOCCOCCOCCOCCOCCOCCOCCOCCOCCOC)C(=O)N1CCN(c2ccc3ncn(CC(=O)N[C@@H](CCCNC(=N)N)C(=O)N[C@@H](Cc4c[nH]cn4)C(=O)N[C@@H](Cc4ccc(O)cc4)C(=O)N[C@@H](CC(C)C)C(=O)N[C@@H](CC(N)=O)C(=O)N[C@@H](Cc4c[nH]c5ccccc45)C(=O)N[C@H](C(=O)N[C@H](C(=O)N[C@@H](CCCNC(=N)N)C(=O)N[C@@H](CCC(N)=O)C(=O)N(C)[C@@H](CCCNC(=N)N)C(=O)N[C@@H](Cc4ccc(O)cc4)C(N)=O)[C@@H](C)O)C(C)C)c(=O)c3c2)CC1)[C@@H](C)CC` [Example 46]: the EC50 on hNPY2R [1] was 0.29 nM; at Y1R, more than 9000 nM; at Y4R it was more than 9000 nM; on Y5R, 4580 nM; on hNPY2R [2], 0.214 nM.
In the case of `CCCCCCCCCCCCCCCCCCCC(=O)N[C@@H](CCC(=O)O)C(=O)N[C@@H](CCC(=O)O)C(=O)N[C@H](C(=O)N[C@@H](CCCCNC(=O)CCOCCOCCOCCOCCOCCOCCOCCOCCOCCOCCOCCOCCOCCOCCOCCOC)C(=O)N1CCN(c2ccc3ncn(CC(=O)N[C@@H](CCCNC(N)=O)C(=O)N[C@@H](Cc4c[nH]cn4)C(=O)N[C@@H](Cc4ccc(O)cc4)C(=O)N[C@@H](CC(C)C)C(=O)N[C@@H](CC(N)=O)C(=O)N[C@@H](Cc4c[nH]c5ccccc45)C(=O)N[C@H](C(=O)N[C@H](C(=O)N[C@@H](CCCNC(=N)N)C(=O)N[C@@H](CCC(N)=O)C(=O)N(C)[C@@H](CCCNC(=N)N)C(=O)N[C@@H](Cc4ccc(O)cc4)C(N)=O)[C@@H](C)O)C(C)C)c(=O)c3c2)CC1)[C@@H](C)CC` [Example 47], the EC50 was 0.23 nM on hNPY2R [1]; more than 6000 nM on Y1R; more than 6000 nM on Y4R; more than 6000 nM at Y5R; 0.158 nM at hNPY2R [2].
Regarding `CCCCCCCCCCCCCCCCCCCC(=O)N[C@@H](CCC(=O)O)C(=O)N[C@@H](CCC(=O)O)C(=O)N[C@H](C(=O)N[C@@H](CCCCNC(=O)CCOCCOCCOCCOCCOCCOCCOCCOCCOCCOCCOCCOCCOCCOCCOCCOC)C(=O)N1CCN(c2ccc3ncn(CC(=O)N[C@@H](CCCNC(=N)N)C(=O)N[C@@H](Cc4c[nH]cn4)C(=O)N[C@@H](Cc4ccc(O)cc4)C(=O)N[C@@H](CC(C)C)C(=O)N[C@@H](CC(N)=O)C(=O)N[C@@H](Cc4c[nH]c5ccccc45)C(=O)N[C@H](C(=O)N[C@H](C(=O)N[C@@H](CCCNC(=N)N)C(=O)N[C@@H](CCC(N)=O)C(=O)N(C)[C@@H](CCCNC(=N)N)C(=O)N[C@@H](Cc4ccc(O)cc4)C(N)=O)[C@@H](C)O)C(C)C)c(=O)c3c2)CC1)[C@@H](C)CC` [Example 48], the EC50 on hNPY2R [1] was 0.52 nM; at Y1R it was more than 9000 nM; on Y4R, more than 9000 nM; on Y5R it was 4320 nM; on hNPY2R [2], 0.388 nM.

What is called EC50 is the concentration needed to bring the measured effect to its halfway point. A lower EC50 goes with a more potent agent.

Source of the values: patent US20110172147A1, “NEUROPEPTIDE-2 RECEPTOR (Y-2R) AGONISTS” (priority 2009, published 2011).
